Assay results: ChEMBL document CHEMBL1150227, “A new dammarane-type triterpene glycoside from Polyscias fulva” (2001)
Values after ≈ are worked out from the molar mass of the structure shown.

How the values were obtained:
Candida albicans = assay: Antifungal activity against Candida albicans; type: functional
Cryptococcus neoformans = assay: Antifungal activity against Cryptococcus neoformans; type: functional

Compound `C[C@@H]1O[C@@H](O[C@H]2[C@H](O[C@H]3CC[C@@]4(C)[C@@H](CC[C@]5(C)[C@@H]4CC=C4[C@@H]6CC(C)(C)CC[C@]6(C(=O)O)CC[C@]45C)[C@]3(C)CO)OC[C@H](O)[C@@H]2O)[C@H](O)[C@H](O)[C@H]1O` [ALPHA-HEDERIN] has an MIC (Candida albicans) of 6.25 µg/mL (≈ 8.32 µM) and an MIC (Cryptococcus neoformans) of 25 µg/mL (≈ 33.3 µM).
